# Laboratory results taken from patent publication US8809368B2, “Compounds affecting gap junction activity” (Kansas State University Research Foundation, priority 2006, dated 2014).
# Entries after “also recorded” stand apart in the source; their conditions may differ.
# How the values were obtained:
# [1] = Solubility in water; type: physicochemical; details: succinic acid salt
# [2] = tested on: HIF1α; test: CoCl2 chemical hypoxia in R28 cells, HIF1α stabilization in nuclear extracts; type: cell-based, rat; details: PQ1 alone, up to 24 h
# Experimental: (A) About 70% confluent retinal R28 cells were treated with 100, 200 and 500 μM CoCl2 for 24 h with or without the pre-treatment of PQ1 (10 μM, 40 min) in a cell culture chamber (5% CO2, room air, 37° C.). Caspase-3 activation was determined by Western blotting in whole cell homogenates (WCH). (B) HIF1α stabilization was measured in the nuclear extracts (NE) after treatment with 500 μM CoCl2 at different time intervals with or without the pretreatment of PQ1. […] Levels of Cx43 and phosphoCx43-Ser368 are measured in WCH. β-Actin is used as a loading control.
# Approximately 70% confluent retinal R28 cells were pre-incubated with PQ1 (10 μM, 40 min), followed by CoCl2 treatments at 100, 200 and 500 μM for different time periods in a cell culture chamber (5% CO2, room air, 37° C.). Hypoxia induction was confirmed by testing the hypoxia-inducible factor 1-α (HIF1α) protein expression levels in nuclear extracts by Western blotting.
# Nuclear extracts. […] The eluted nuclear proteins in the supernatant were collected and HIF1a protein levels were measured by Western blotting. […]
# [3] = tested on: R28 cells; test: Apoptosis assay, Annexin V-FITC/PI flow cytometry, R28 cells; type: cell-based, rat
# From the text: (A) Representative flow cytometer images of R28 cells with different treatments of PQ1 and/or CoCl2. The y-axis quantifies the number of cells stained with propidium iodine and the x-axis quantifies number of cells stained with Annexin V-FITC. (B,C) Histogram of % apoptotic cells after treatment with CoCl2 and PQ1. The percentage of apoptotic cells represents cells that are Annexin V-FITC positive and both propidium iodide and Annexin V-FITC positive after different time periods.
# Apoptosis assay. Approximately 70% confluent R28Cells in 25 cm2 flasks were treated with PQ1 at 10 μM for 40 min followed by treatment with 500 μM CoCl2 for different time periods to induce apoptosis. After this, cells were harvested and stained with Annexin V-FITC and propidium iodide (PI) according to the manufacturer's protocol (BioVision # K101-100). Annexin V-FITC/PI binding was analyzed by flow cytometry using a BD FACSCalibur system and data was analyzed using the CellQuest software.
# The later phase of apoptosis is assessed by measuring the DNA labeling with the PI, an indicator of the cell membrane permeabilization.
# [4] = tested on: SW620 colon cancer cells; test: Colony growth of SW620 colon cancer cells; type: cell-based
# Experimental: However, PQ3 has an opposite effect on mammary cancer cell lines. […] A summary of PQ-mediated GJIC activity and colony growth in breast and colon cancer cells is presented in Tables 1, 2, and 3, as well as FIGS. 10-13. In FIG. 10, SW620 cells were dosed for 24 hours with PQ1 at 100, 200, 300, and 500 nM. The gap junction activity was measured as a percent of control, as previously described. It was seen that all concentrations on PQ1 increased the gap junction activity in SW620 colon cancer cells as compared to the control. In FIG. 11, the effect of PQ1 on the expression of PKCγ was studied at concentrations of 100, 200, 300 and 500 nM PQ1 for 24 hours. It is seen in FIG. 11 that PQ1 has no effect on the expression of PKCγ at the levels tested. In FIGS. 12 and 13, the effect of PQ1 on the colony growth of SW620 colon cancer cells was measured with 1-100 nM PQ1 (FIG. 12) and 10 uM PQ1 (FIG. 13).
# Colony Growth Assay: T47D human breast cancer cells were treated with PQ1. Base agar plates were prepared containing 0.8% agar and 0.4% agar in Ham's F12. Cells (5×10^4 cells/33 mm2 well) were suspended in 100 μl of Ham's F12 with 0.4% agar and plated. These plates were maintained at 37° C. for 7 days and examined for the presence of colonies. Individual colonies of 40 um or greater were examined.
# [5] = tested on: T47D cells; test: Transepithelial electrical resistance (TEER), T47D monolayers; type: cell-based, human; details: 100, 200 or 500 nM, 48 hours, compared to control
# Experimental: T47D cells were treated with 0, 100, 200, and 500 nM PQ1 for 48 hours. TEER assay was performed as described herein. TEER values of each treatment in KΩ/cm^2 were converted to relative percent of control.
# Measurement of transepithelial electrical resistance. Cells were grown to 100% confluency on a 12-well transwell (BD Biosciences, San Jose, Calif.) and treated with 0, 100, 200, and 500 nM PQ1 for 48 hours. Transepithelial electrical resistance (TEER) of the T47D monolayers was measured by a high-precision. Resulting voltages were recorded with the aid of a differential amplifier with a high input resistance. Data were corrected for well area (given in Ω·cm^2).
compound,measurement,setting,value
"COc1cc(NCCCN)c2nccc(C)c2c1Oc1cccc(C(F)(F)F)c1.O=C(O)CCC(=O)O [PQ1, 6-Methoxy-8-[(3-aminopropyl)amino]-4-methyl-5-(3-trifluoromethylphenyloxy) quinoline succinic acid]",solubility in water,[1],soluble in water
same,HIF1α stabilization,[2],did not cause activation or stabilization; also recorded: did not have any effect
same,protection from CoCl2-induced apoptosis,"[3]; 10 μM PQ1 40 min pre-treatment, then CoCl2 500 μM",protected the cells significantly
same,damage to the cells,"[3]; 10 μM PQ1 only, 36 h",did not cause any damage
same,colony growth,[4]; 10 uM,completely inhibits
same,colony growth,[4]; 1-100 nM,no effect
same,tight junction ion permeability by TEER,[5],no significant effect
